Data on one substance can be found in paper PMC11187126, “Structure and dynamics of the pyroglutamylated RF-amide peptide QRFP receptor GPR103” (Nature Communications, 2024).

The target of this test is T1, GPR103 L193^ECL2A (Homo sapiens, UniProt Q96P65, L193A).
T1 construct: we used human full-length QRFPR-encoding plasmids; expressed in transfected cells; host or cells: HEK293 cells, pCAGGS vector
T1 sequence (Q96P65 1-431 L193A): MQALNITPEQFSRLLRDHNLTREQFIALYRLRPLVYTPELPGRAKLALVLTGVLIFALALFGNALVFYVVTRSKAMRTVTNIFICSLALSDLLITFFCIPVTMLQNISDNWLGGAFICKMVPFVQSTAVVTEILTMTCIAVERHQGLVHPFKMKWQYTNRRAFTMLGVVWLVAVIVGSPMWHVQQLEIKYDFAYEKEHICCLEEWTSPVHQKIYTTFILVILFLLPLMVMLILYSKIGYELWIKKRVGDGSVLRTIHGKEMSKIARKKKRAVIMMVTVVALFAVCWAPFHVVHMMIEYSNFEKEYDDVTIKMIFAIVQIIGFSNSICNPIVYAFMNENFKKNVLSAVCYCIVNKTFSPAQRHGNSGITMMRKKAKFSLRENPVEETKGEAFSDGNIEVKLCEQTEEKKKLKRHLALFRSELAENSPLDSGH
The test can be described thus: TGFα shedding assay; Exp. level WT (1:50). The format is cell-based. The protocol: For the TGFα shedding assay and the flow cytometry analysis, we used human full-length QRFPR-encoding plasmids. Specifically, GPR103 was N-terminally modified with an HA signal sequence followed by a FLAG epitope and then a flexible linker ([…]; the FLAG epitope is underlined) and inserted into the pCAGGS vector. Plasmid encoding GPR103 mutants were generated using Quickchange Site-Directed Mutagensis kit (Agilent).
The TGFα shedding assay was performed as described previously with minor modifications. Plasmid transfection was performed in a 6-well plate with a mixture of 500 ng (per well in a 6-well plate) AP-TGFα-encoding plasmid and 200 ng GPR103-encoding plasmid. After 1-day culture, the transfected cells were harvested by trypsinization, pelleted by centrifugation at 190 × g for 5 min, and washed once with 5 mM HEPES (pH 7.4)-containing Hank’s Balanced Salt Solution (HBSS). After centrifugation, the cells were resuspended in 8 mL of the HEPES-containing HBSS. The cell suspension was seeded in a 96-well culture plate (cell plate) at a volume of 90 μL (per well hereafter) and incubated in a 37 °C incubator with 5% CO2 for 30 min. […] After spinning the cell plates at 190 × g for 2 min, 80 μL of conditioned media was transferred to an empty 96-well plate (conditioned media (CM) plate). Then, 80 μL of AP reaction solution (10 mM p-nitrophenylphosphate (p-NPP), 120 mM Tris-HCl (pH 9.5), 40 mM NaCl, and 10 mM MgCl2) was dispensed into the cell plates and the CM plates. Absorbance at 405 nm of the plates was measured using a microplate reader (SpectraMax 340 PC384, Molecular Devices) before and after 1-h incubation at room temperature. Ligand-induced AP-TGFα release was calculated by subtracting spontaneous AP-TGFα release signal from ligand-induced AP-TGFα release signal. The AP-TGFα release signals were fitted to a four-parameter sigmoidal concentration–response curve, using the Prism 10 software (GraphPad Prism). For each replicate experiment, the pEC50 parameter (negative logarithmic values of EC50 values) of the individual GPR103 mutants were normalized to that of the wild-type GPR103 performed in parallel, and resulting ∆pEC50 values were used to denote ligand response activity of the mutants. […]
Exp. le vel: WT (1:5 0)Exp. le vel: WT (1:5 0)Exp. le vel: WT (1:5 0)Exp. le vel: WT (1:2 0)Exp. le vel: WT (1:2 0)Exp. le vel: WT (1:1 0) […]
L1 4N - t e r mA F2 5N - t e r mA I 2 6N - t e r mA Y 2 9N - t e r mA C 9 82 .5 7A T10 22 .6 1A Exp . l eve l: WT (1 :5)Exp . l evel : >WT (1 :1)Exp. le vel: WT (1:2 0)Exp. le vel: WT (1:2 0)Exp. le vel: WT (1:5 0)Exp . l eve l: WT (1 :1) […]
Exp. le vel: WT (1:1 0)Exp. le vel: WT (1:2 0) C 1 1 83 .2 5AExp. le vel: WT (1:5 0)Exp. le vel: WT (1:5 0)Exp. le vel: WT (1:2 0)Exp . l eve l: WT (1 :5) […]
Exp. le vel: WT (1:5 0)Exp. le vel: WT (1:1 0)Exp. le vel: WT (1:5 0) E203ECL2AExp . l evel : >WT (1 :1)Exp. le vel: WT (1:5 0)Exp. le vel: WT (1:5 0) […]
Exp . l eve l: WT (1 :1) F28Exp. le vel: WT (1:5 0) C 2 8 56 .4 7AExp. le vel: WT (1:2 0) WExp. le vel: WT (1:2 0) F28Exp. le vel: WT (1:5 0)Exp . l evel : >WT (1 :1) […]
Exp. le vel: WT (1:5 0)Exp. le vel: WT (1:5 0) C 3 2 77 .4 8AExp . l eve l: WT (1 :5)Exp . l evel : >WT (1 :1)Exp . l evel : >WT (1 :1) […]
Suppl eme nt ary Figure 1 | Mutational analysis of GPR103. […]
mutants. Data are presented as mean values ± SEM, normally n=3-5; dots), each performed in triplicate. b-d Cell-surface expression (b) and QRFP26-in-duced activation of GPR103 (c, d) were analyzed by the flow cytometry and the TGFα shedding assay, respectively. From the concentration–response curves (a), Emax (c) and ΔpEC50 (d) values relative to the wild type were calculated. Colors in the mutant bars indicate an expression level matching to that of titrated wild type. Statistical analyses were performed using the ordinary one-way ANOVA followed by Dunnett tests with the expression-matched […]

Read-outs that look alike come from different tables or passages of the source. No end group written: not given here.

As to TSGPLGNLAEELNGYSRKKGGFSFRF-NH2 [QRFP26], the Emax by setting is: (Exp. #1) 89.95 % WT; (Exp. #2) 86.94 % WT; (Exp. #3) 94.38 % WT; (mean, read-out: Emax) 90.4%; (n = 3, read-out: Emax) 93.8 ± 1.8%. The substance further had an EC50 (n = 3) of 182 nM.
